# Laboratory results as given in patent publication US11602578B2, “Crosslinkable polypeptide and hyaluronic acid coatings” (Université de Strasbourg, priority 2017, dated 2023).
# How the values were obtained:
# [1] = test system: S. aureus; experiment: PAR in solution: S. aureus growth and minimal inhibitory concentration in MHB medium; format: cell-based, Staphylococcus aureus; settings: for inhibition of bacterial growth by PAR in solution (in words): at 1 μM; for inhibition of S. aureus growth by PAR in solution (in words): concentrations up to 0.04 mg·mL^−1, 24 h at 37° C. in MHB; for times less active than PAR100 or PAR200 chains: from the MICs determined in solution
# Method: PAR with 10, 30, 100 or 200 arginine residues per chain were tested. Each PAR was incubated 24 h at 37° C. in 300 μL of MHB medium with S. aureus (A620=0.001). Pathogen growth of 0% corresponds to medium with antibiotics (and without PAR) and 100% to medium without PAR. Each value corresponds to the mean value of 3 individual experiments (3 samples per experiment and condition) and error bars correspond to standard deviations. For each concentration, the first column represents the normalized pathogen growth of S. aureus for PAR10, the 2nd column for PAR30, the third column for PAR100 and the fourth for PAR200.
# In the following the inventors of the present invention wanted to further elucidate the underlying mechanism that confer to the coatings of the invention the strong inhibitory property on the surface and in the supernatant. As an example the (PAR30/HA)24 coating was further investigated. Accordingly, the minimal inhibitory concentration (MIC) of PAR in solution was determined using bacterial assay as described in Experimental Section. […] Finally for PAR at concentrations of 0.01 mg·mL^−1, inhibition of 100% was shown only for PAR30. Longer or shorter PAR chains (PAR10, PAR100 or PAR200) inhibits only partially (less than 40%) S. aureus growth. […] This reasoning is valid when PAR concentration values are expressed in mass (mg·mL^−1) thus it is related to the number of arginine monomers. However when the graph is plotted with concentrations in μM (and thus proportional in number of chains), which means that concentration is related to number of chains, different interpretation can be made. […] Moreover the MIC100 values obtained for PAR30, PAR100 or PAR200 ranges at very low concentrations (between 1 and 2 μM) which is remarkable when compared to well-known antimicrobial peptides (for example 30 μM for cateslytin with S. aureus, see Adv. Funct. Mater. 2013, 23, 4801-4809). PAR is thus a powerful candidate to fight against S. aureus.
# [2] = test system: S. aureus; settings: with S. aureus; Adv. Funct. Mater. 2013, 23, 4801-4809; cited from earlier work
substance,measurement,setting,value
poly-L-arginine [PAR100],inhibition of bacterial growth by PAR in solution (in words),[1],totally inhibit
same,inhibition of S. aureus growth by PAR in solution (in words),[1],totally inhibited
poly-L-arginine [PAR200],inhibition of S. aureus growth by PAR in solution,"[1]; 0.02 mg·mL^−1, 24 h at 37° C. in MHB",about 45%
same,inhibition of bacterial growth by PAR in solution (in words),[1],totally inhibit
same,inhibition of S. aureus growth by PAR in solution (in words),[1],totally inhibited
poly-L-arginine [PAR30],inhibition of S. aureus growth by PAR in solution,"[1]; 0.01 mg·mL^−1, 24 h at 37° C. in MHB",100%
same,MIC90,"[1]; S. aureus, PAR in solution",about 2 μM
same,concentration needed to totally inhibit bacterial growth in solution,"[1]; S. aureus, PAR in solution",about 10 μM
same,inhibition of S. aureus growth by PAR in solution (in words),[1],totally inhibited
same,times less active than PAR100 or PAR200 chains,[1],2 times
cateslytin,MIC of a known antimicrobial peptide,[2],30 µM
poly-L-arginine [PAR10],concentration needed to totally inhibit bacterial growth in solution,"[1]; S. aureus, PAR in solution",about 10 μM
same,inhibition of S. aureus growth by PAR in solution (in words),[1],totally inhibited
same,times less active than PAR100 or PAR200 chains,[1],10 times
